Results published in article PMC10447463, “Data-mining unveils structure–property–activity correlation of viral infectivity enhancing self-assembling peptides” (Nature Communications, 2023).
Read-outs that look alike come from different tables or passages of the source.

Assays:
[1] = Turbidity, derived count rate of scattered light; format: physicochemical; conditions: for Log Count Rate: log of derived count rate; for Count Rate: turbidity
Method in brief: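 Samples: 1 mg/mL in PBS pH 7.4 (from DMSO), 1 d at RT, then diluted in 1 mM KCl immediately before measurement. Triplicates, two independent runs averaged.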

[2] = format: physicochemical; conditions: for Tht category (> 1.5 to blank = +): category 1/0
Method in brief: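 Preformed peptide fibrils (1 mg/mL) mixed with 50 µM ThT in PBS, 15 min at RT, fluorescence ex 440/em 488 nm versus PBS blank, triplicates. Zeta potential: peptides at 1 mg/mL in PBS pH 7.4, aged 1 d at RT, diluted in 1 mM KCl, Smoluchowski from electrophoretic mobility.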

[3] = category 1 or 0 derived from the count rate, key not given
[4] = derived count rate of scattered light, mean, std deviation in next column
[5] = ThT fluorescence relative to blank (42.1851851851852 a.u.)
[6] = relative to blank 42.1851851851852 a.u.
[7] = derived count rate from zeta measurement, mean
[8] = Fig S8 panels A, C, asymmetric log errors
[9] = Fig S8 panels B, D, derived count rate of scattered light
[10] = category 1 or 0 from count rate, key not given
[11] = derived count rate of scattered light, mean, std deviation in separate column
[12] = derived count rate of scattered light
[13] = ThT fluorescence relative to blank, blank = 42.1851851851852

CEFEFQFNMWQ [TM140]
Zeta Count Rate Category ([1]; category 1/0, no key printed): 1
Zeta Count Rate Category [1, 3]: 1
Zeta Count Rate / kcps [1, 4]: 186.3 kcps
Tht rel to blank (42.1851851851852) [2, 5]: 6.057
Tht category (> 1.5 to blank = +) [2]: 1 (ThT. Cat is 1, if Rel. ThT >2)
Tht rel to blank (42.1851851851852) [2, 6]: 6.057

CEIEIQI [AR2/ TM142]
Zeta Count Rate Category ([1]; category 1/0, no key printed): 0
Zeta Count Rate / kcps [1, 7]: 51.97 kcps
Zeta Count Rate / kcps [1, 4]: 51.97 kcps
Zeta Count Rate Category ([1]; key not given): 0
Tht rel to blank (42.1851851851852) [2, 5]: 2.23
Tht category (> 1.5 to blank = +) [2]: 1 (ThT. Cat is 1, if Rel. ThT >2)
Tht rel to blank (42.1851851851852) [2, 6]: 2.23

CEIEIQINM [TM144]
Zeta Count Rate Category ([1]; category 1/0, no key printed): 0
Zeta Count Rate / kcps [1, 7]: 58.43 kcps
Zeta Count Rate / kcps [1, 4]: 58.43 kcps
Zeta Count Rate Category ([1]; key not given): 0
Tht rel to blank (42.1851851851852) [2, 5]: 5.13
Tht category (> 1.5 to blank = +) [2]: 1 (ThT. Cat is 1, if Rel. ThT >2)
Tht rel to blank (42.1851851851852) [2, 6]: 5.13

CEIEIQINMWQ [TM143]
Zeta Count Rate Category ([1]; category 1/0, no key printed): 1
Zeta Count Rate / kcps [1, 7]: 1570 kcps
Zeta Count Rate / kcps [1, 4]: 1570 kcps
Zeta Count Rate Category ([1]; key not given): 1
Tht rel to blank (42.1851851851852) [2, 5]: 3.705
Tht category (> 1.5 to blank = +) [2]: 1 (ThT. Cat is 1, if Rel. ThT >2)
Tht rel to blank (42.1851851851852) [2, 6]: 3.705

CHLHLQL [CN9]
Log Count Rate [1, 8]: 3.062
Log Count Rate ([1]; Fig S8 panels B, D): 3.062
Count Rate [1, 9]: 1154.63
Zeta Count Rate Category ([1]; category 1/0, no key printed): 1
Zeta Count Rate / kcps [1, 4]: 1155 kcps
Tht category (> 1.5 to blank = +) [2]: 1 (ThT. Cat is 1, if Rel. ThT >2)
Tht rel to blank (42.1851851851852) [2, 6]: 3.241

CKAKAQA [TM155]
Zeta Count Rate Category ([1]; category 1/0, no key printed): 1
Zeta Count Rate Category [1, 10]: 1
Zeta Count Rate / kcps [1, 4]: 362.7 kcps
Zeta Count Rate / kcps [1, 11]: 362.7 kcps
Tht rel to blank (42.1851851851852) [2, 5]: 1.227
Tht category (> 1.5 to blank = +) [2]: 0 (ThT-inactive (N-Fold <2))
Tht rel to blank (42.1851851851852) [2, 6]: 1.227

CKAKAQANM [BL9]
Zeta Count Rate Category ([1]; category 1/0, no key printed): 1
Zeta Count Rate Category [1, 10]: 1
Zeta Count Rate / kcps [1, 4]: 207.3 kcps
Zeta Count Rate / kcps [1, 11]: 207.3 kcps
Tht rel to blank (42.1851851851852) [2, 5]: 1.249
Tht category (> 1.5 to blank = +) [2]: 0 (ThT-inactive (N-Fold <2))
Tht rel to blank (42.1851851851852) [2, 6]: 1.249

CKAKAQANMWQ [BL8]
Log Count Rate [1, 8]: 0.9528
Log Count Rate ([1]; Fig S8 panels B, D): 0.9528
Count Rate [1, 9]: 8.97
Zeta Count Rate Category ([1]; category 1/0, no key printed): 0
Zeta Count Rate Category [1, 10]: 0
Zeta Count Rate / kcps [1, 4]: 8.967 kcps
Zeta Count Rate / kcps [1, 11]: 8.967 kcps
Tht rel to blank (42.1851851851852) [2, 5]: 1.86
Tht category (> 1.5 to blank = +) [2]: 0 (ThT-inactive (N-Fold <2))
Tht rel to blank (42.1851851851852) [2, 6]: 1.86

CKFKFQF [BL4]
Log Count Rate [1, 8]: 3.725
Log Count Rate ([1]; Fig S8 panels B, D): 3.725
Count Rate [1, 9]: 5303.37
Zeta Count Rate Category ([1]; category 1/0, no key printed): 1
Zeta Count Rate Category [1, 10]: 1
Zeta Count Rate / kcps [1, 4]: 5303 kcps
Zeta Count Rate / kcps [1, 11]: 5303 kcps
Tht rel to blank (42.1851851851852) [2, 5]: 2.251
Tht category (> 1.5 to blank = +) [2]: 1 (ThT. Cat is 1, if Rel. ThT >2)
Tht rel to blank (42.1851851851852) [2, 6]: 2.251

CKFKFQFNM [BL3]
Log Count Rate [1, 8]: 3.347
Log Count Rate ([1]; Fig S8 panels B, D): 3.347
Count Rate [1, 9]: 2223.63
Zeta Count Rate Category ([1]; category 1/0, no key printed): 1
Zeta Count Rate Category [1, 10]: 1
Zeta Count Rate / kcps [1, 4]: 2224 kcps
Zeta Count Rate / kcps [1, 11]: 2224 kcps
Tht rel to blank (42.1851851851852) [2, 5]: 2.383
Tht category (> 1.5 to blank = +) [2]: 1 (ThT. Cat is 1, if Rel. ThT >2)
Tht rel to blank (42.1851851851852) [2, 6]: 2.383

CKFKFQFNMW [KB14]
Zeta Count Rate Category ([1]; category 1/0, no key printed): 1
Zeta Count Rate / kcps [1, 4]: 4107 kcps
Zeta Count Rate / kcps [1, 11]: 4107 kcps
Tht category (> 1.5 to blank = +) [2]: 1 (ThT. Cat is 1, if Rel. ThT >2)
Tht rel to blank (42.1851851851852) [2, 6]: 6.314

CKFKFQFNMWQ [BL2]
Zeta Count Rate Category ([1]; category 1/0, no key printed): 1
Zeta Count Rate Category [1, 10]: 1
Zeta Count Rate / kcps [1, 4]: 142.5 kcps
Zeta Count Rate / kcps [1, 11]: 142.5 kcps
Tht rel to blank (42.1851851851852) [2, 5]: 2.427
Tht category (> 1.5 to blank = +) [2]: 1 (ThT. Cat is 1, if Rel. ThT >2)
Tht rel to blank (42.1851851851852) [2, 6]: 2.427

CKFKFQFW [TM72]
Log Count Rate [1, 8]: 4.466
Log Count Rate ([1]; Fig S8 panels B, D): 4.466
Count Rate [1, 9]: 29210.5
Zeta Count Rate Category [1, 3]: 1
Zeta Count Rate / kcps [1, 4]: 29210.5 kcps
Tht rel to blank (42.1851851851852) [2, 5]: 1.802

CKFKQFF [CK15]
Log Count Rate [1, 8]: 0.4099
Log Count Rate ([1]; Fig S8 panels B, D): 0.4099
Count Rate [1, 9]: 2.57
Zeta Count Rate Category ([1]; category 1 / 0, no key given): 0
Zeta Count Rate Category [1, 3]: 0
Zeta Count Rate / kcps [1, 12]: 2.567 kcps
Zeta Count Rate / kcps [1, 4]: 2.567 kcps
Zeta Count Rate / kcps [1, 11]: 2.567 kcps
Tht rel to blank (42.1851851851852) [2, 5]: 1.34
Tht rel to blank (42.1851851851852) [2, 13]: 1.34
Tht category (> 1.5 to blank = +) [2]: 0 (ThT-inactive (N-Fold <2))
Tht rel to blank (42.1851851851852) [2, 6]: 1.34

CKFKQFFNM [CK14]
Log Count Rate [1, 8]: 4.436
Log Count Rate ([1]; Fig S8 panels B, D): 4.436
Count Rate [1, 9]: 27264.3
Zeta Count Rate Category ([1]; category 1 / 0, no key given): 1
Zeta Count Rate Category [1, 3]: 1
Zeta Count Rate / kcps [1, 12]: 27264.3 kcps
Zeta Count Rate / kcps [1, 4]: 27264.3 kcps
Zeta Count Rate / kcps [1, 11]: 27264.3 kcps
Tht rel to blank (42.1851851851852) [2, 5]: 45.97
Tht rel to blank (42.1851851851852) [2, 13]: 45.97
Tht category (> 1.5 to blank = +) [2]: 1 (ThT. Cat is 1, if Rel. ThT >2)
Tht rel to blank (42.1851851851852) [2, 6]: 45.97

CKFKQFFNMWQ [CK13]
Zeta Count Rate Category ([1]; category 1 / 0, no key given): 1
Zeta Count Rate Category [1, 10]: 1
Zeta Count Rate / kcps [1, 12]: 8210 kcps
Zeta Count Rate / kcps [1, 4]: 8210 kcps
Zeta Count Rate / kcps [1, 11]: 8210 kcps
Tht rel to blank (42.1851851851852) [2, 5]: 27.7
Tht rel to blank (42.1851851851852) [2, 13]: 27.7
Tht category (> 1.5 to blank = +) [2]: 1 (ThT. Cat is 1, if Rel. ThT >2)
Tht rel to blank (42.1851851851852) [2, 6]: 27.7

CKIKIQI [MG3b]
Log Count Rate [1, 8]: 3.386
Log Count Rate ([1]; Fig S8 panels B, D): 3.386
Count Rate [1, 9]: 2432.9
Zeta Count Rate Category ([1]; category 1/0, no key printed): 1
Zeta Count Rate Category [1, 3]: 1
Zeta Count Rate Category [1, 10]: 1
Zeta Count Rate / kcps [1, 7]: 2432.9 kcps
Zeta Count Rate / kcps [1, 4]: 2432.9 kcps
Zeta Count Rate / kcps [1, 11]: 2432.9 kcps
Zeta Count Rate Category ([1]; key not given): 1
Tht rel to blank (42.1851851851852) [2, 5]: 3.939
Tht category (> 1.5 to blank = +) [2]: 1 (ThT. Cat is 1, if Rel. ThT >2)
Tht rel to blank (42.1851851851852) [2, 6]: 3.939

CKIKIQINM [MG2]
Zeta Count Rate Category ([1]; category 1/0, no key printed): 1
Zeta Count Rate Category [1, 10]: 1
Zeta Count Rate / kcps [1, 4]: 4228 kcps
Zeta Count Rate / kcps [1, 11]: 4228 kcps
Tht rel to blank (42.1851851851852) [2, 5]: 2.648
Tht category (> 1.5 to blank = +) [2]: 1 (ThT. Cat is 1, if Rel. ThT >2)
Tht rel to blank (42.1851851851852) [2, 6]: 2.648

CKIKIQINMW [TM86]
Zeta Count Rate Category ([1]; category 1/0, no key printed): 1
Zeta Count Rate Category [1, 10]: 1
Zeta Count Rate / kcps [1, 4]: 4915 kcps
Zeta Count Rate / kcps [1, 11]: 4915 kcps
Tht rel to blank (42.1851851851852) [2, 5]: 1.353
Tht category (> 1.5 to blank = +) [2]: 0 (ThT-inactive (N-Fold <2))
Tht rel to blank (42.1851851851852) [2, 6]: 1.353
